Reference: patent US10730872B2, “Pesticidally active heterocyclic derivatives with sulphur containing sustitutents” (SYNGENTA PARTICIPATIONS AG, priority 2015, dated 2020)

How the values were obtained:
Assay type in all cases: in vivo
Spodoptera littoralis [1] = test: Spodoptera littoralis (Egyptian Cotton Leaf Worm), uptake by lettuce roots from agar; conditions: 144 h, test rate of 12.5 ppm, mixed with agar, absorbed by lettuce roots, Spodoptera eggs, 6 days after infestation, read-out: effect in at least one of the three categories (mortality, anti-feeding, or growth inhibition)
Excerpt: Test compounds were applied by pipette from 10,000 ppm DMSO stock solutions into 24-well plates and mixed with agar. Lettuce seeds were placed onto the agar and the multi well plate was closed by another plate which contained also agar. After 7 days the compound was absorbed by the roots and the lettuce grew into the lid plate. The lettuce leaves were then cut off into the lid plate. Spodoptera eggs were pipetted through a plastic stencil onto a humid gel blotting paper and the lid plate was closed with it. The samples were assessed for mortality, anti-feedant effect and growth inhibition in comparison to untreated samples 6 days after infestation.

Spodoptera littoralis [2] = test: Spodoptera littoralis (Egyptian Cotton Leaf Worm), sprayed cotton leaf discs; conditions: foliar, 72 h, application rate of 200 ppm, L1 larvae, 3 days after infestation
In short: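 Cotton leaf discs on agar sprayed with aqueous dilutions of 10,000 ppm DMSO stocks, dried, then infested with five L1 larvae. Mortality, anti-feeding and growth inhibition scored against untreated discs 3 days after infestation. Control recorded when any one category exceeds the untreated sample.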

[3] = system: Frankliniella occidentalis; test: Frankliniella occidentalis (Western Flower Thrips): Feeding/Contact Activity; conditions: foliar, 168 h, application rate of 200 ppm, sprayed sunflower leaf discs, population of mixed ages, 7 days after infestation
Procedure: Sunflower leaf discs were placed on agar in 24-well microtiter plates and sprayed with aqueous test solutions prepared from 10,000 DMSO stock solutions. After drying the leaf discs were infested with a Frankliniella population of mixed ages. The samples were assessed for mortality 7 days after infestation.

Myzus persicae [4] = test: Myzus persicae (Green Peach Aphid). Systemic Activity; conditions: 144 h, test rate of 24 ppm, roots of infested pea seedlings in test solution, 6 days
Procedure: Roots of pea seedlings infested with an aphid population of mixed ages were placed directly into aqueous test solutions prepared from 10,000 DMSO stock solutions. The samples were assessed for mortality 6 days after placing seedlings into test solutions.

Diabrotica balteata = Diabrotica balteata (Corn Root Worm); conditions: 96 h, application rate of 200 ppm, sprayed maize sprouts, L2 larvae, 4 days after infestation, read-out: effect in at least one of the two categories (mortality or growth inhibition)
Procedure: Maize sprouts placed onto an agar layer in 24-well microtiter plates were treated with aqueous test solutions prepared from 10,000 ppm DMSO stock solutions by spraying. After drying, the plates were infested with L2 larvae (6 to 10 per well). The samples were assessed for mortality and growth inhibition in comparison to untreated samples 4 days after infestation.

Plutella xylostella = Plutella xylostella (Diamond Back Moth); conditions: 120 h, application rate of 200 ppm, artificial diet, L2 larvae, 5 days after infestation, read-out: effect in at least one of the two categories (mortality or growth inhibition)
Procedure: 24-well microtiter plates with artificial diet were treated with aqueous test solutions prepared from 10,000 ppm DMSO stock solutions by pipetting. After drying, the plates were infested with L2 larvae (10 to 15 per well). The samples were assessed for mortality and growth inhibition in comparison to untreated samples 5 days after infestation.

Euschistus heros = Euschistus heros (Neotropical Brown Stink Bug); conditions: 120 h, application rate of 200 ppm, sprayed soybean leaves, N2 nymphs, 5 days after infestation, read-out: effect in at least one of the two categories (mortality or growth inhibition)
Procedure: Soybean leaves on agar in 24-well microtiter plates were sprayed with aqueous test solutions prepared from 10,000 ppm DMSO stock solutions. After drying the leaves were infested with N2 nymphs. The samples were assessed for mortality and growth inhibition in comparison to untreated samples 5 days after infestation.

Myzus persicae [5] = test: Myzus persicae (Green Peach Aphid): Feeding/Contact Activity; conditions: foliar, 144 h, application rate of 200 ppm, sprayed sunflower leaf discs, aphid population of mixed ages, 6 days after infestation
Procedure: Sunflower leaf discs were placed onto agar in a 24-well microtiter plate and sprayed with aqueous test solutions prepared from 10,000 ppm DMSO stock solutions. After drying, the leaf discs were infested with an aphid population of mixed ages. The samples were assessed for mortality 6 days after infestation.

Tetranychus urticae = Tetranychus urticae (Two-Spotted Spider Mite): Feeding/Contact Activity; conditions: foliar, 192 h, application rate of 200 ppm, sprayed bean leaf discs, mixed population (mobile stages), 8 days after infestation
Procedure: Bean leaf discs on agar in 24-well microtiter plates were sprayed with aqueous test solutions prepared from 10,000 ppm DMSO stock solutions. After drying the leaf discs were infested with a mite population of mixed ages. The samples were assessed for mortality on mixed population (mobile stages) 8 days after infestation.

Aedes aegypti = test: Aedes Aegypti (Yellow Fever Mosquito); conditions: 200 ppm in ethanol, dry deposit in 12 well plates, adult females, after 48 h and/or 24 h
Procedure: Test solutions, at an application rate of 200 ppm in ethanol, were applied to 12 well tissue culture plates. Once the deposits were dry, five, two to five day old adult female Aedes aegypti were added to each well, and sustained with a 10% sucrose solution in a cotton wool plug. Assessment of knockdown was made one hour after introduction, and mortality was assessed at 24 and 48 hours after introduction.

Bemisia tabaci = Bemisia tabaci (Cotton White Fly): Feeding/Contact Activity; conditions: foliar, 144 h, application rate of 200 ppm, sprayed cotton leaf discs, adult white flies, 6 days after incubation
Procedure: Cotton leaf discs were placed on agar in 24-well microtiter plates and sprayed with aqueous test solutions prepared from 10,000 ppm DMSO stock solutions. After drying the leaf discs were infested with adult white flies. The samples were checked for mortality 6 days after incubation.

CCS(=O)(=O)c1cc(C#N)c(N)nc1-c1nc2cc(C(F)(F)F)n(C3CC3)c(=O)c2n1C [Compound A50, 2-(6-amino-5-cyano-3-ethylsulfonyl-2-pyridyl)-5-cyclopropyl-3-methyl-6-(trifluoromethyl)imidazo[4,5-c]pyridin-4-one]
≥ 80%: percent effect (mortality, anti-feeding or growth inhibition) at 12.5 ppm (Spodoptera littoralis [1]) | percent control (mortality, anti-feeding effect or growth inhibition) at 200 ppm (Spodoptera littoralis [2]) | mortality at 200 ppm [3] | mortality at 24 ppm (Myzus persicae [4]) | effect mortality or growth inhibition at 200 ppm (Diabrotica balteata) | percent effect (mortality or growth inhibition) at 200 ppm (Plutella xylostella) | percent effect (mortality or growth inhibition) at 200 ppm (Euschistus heros) | mortality at 200 ppm (Myzus persicae [5])

CCn1c(C(F)(F)F)cc2nc(-c3nc(NC4CC4)ccc3S(=O)(=O)CC)n(C)c2c1=O [Compound A30, 2-[6-(cyclopropylamino)-3-ethylsulfonyl-2-pyridyl]-5-ethyl-3-methyl-6-(trifluoromethyl)imidazo[4,5-c]pyridin-4-one]
≥ 80%: mortality at 200 ppm (Tetranychus urticae) | percent control (mortality, anti-feeding effect or growth inhibition) at 200 ppm (Spodoptera littoralis [2]) | pest or weed control at 200 ppm (Aedes aegypti) | mortality at 24 ppm (Myzus persicae [4]) | effect mortality or growth inhibition at 200 ppm (Diabrotica balteata) | percent effect (mortality or growth inhibition) at 200 ppm (Plutella xylostella) | percent effect (mortality or growth inhibition) at 200 ppm (Euschistus heros) | mortality at 200 ppm (Bemisia tabaci) | mortality at 200 ppm (Myzus persicae [5])

CCS(=O)(=O)c1ccc(NC2CC2)nc1-c1nc2cc(C(F)(F)F)n(C)c(=O)c2n1C [Compound A2, 2-[6-(cyclopropylamino)-3-ethylsulfonyl-2-pyridyl]-3,5-dimethyl-6-(trifluoromethyl)imidazo[4,5-c]pyridin-4-one]
≥ 80%: mortality at 200 ppm (Tetranychus urticae) | percent effect (mortality, anti-feeding or growth inhibition) at 12.5 ppm (Spodoptera littoralis [1]) | percent control (mortality, anti-feeding effect or growth inhibition) at 200 ppm (Spodoptera littoralis [2]) | pest or weed control at 200 ppm (Aedes aegypti) | mortality at 24 ppm (Myzus persicae [4]) | effect mortality or growth inhibition at 200 ppm (Diabrotica balteata) | percent effect (mortality or growth inhibition) at 200 ppm (Plutella xylostella) | percent effect (mortality or growth inhibition) at 200 ppm (Euschistus heros) | mortality at 200 ppm (Myzus persicae [5])

CCn1c(C(F)(F)F)cc2nc(-c3nc(NC(=O)C4CC4)ccc3S(=O)(=O)CC)n(C)c2c1=O [Compound A8, N-[6-[5-ethyl-3-methyl-4-oxo-6-(trifluoromethyl)imidazo[4,5-c]pyridin-2-yl]-5-ethylsulfonyl-2-pyridyl]cyclopropanecarboxamide]
≥ 80%: percent effect (mortality, anti-feeding or growth inhibition) at 12.5 ppm (Spodoptera littoralis [1]) | percent control (mortality, anti-feeding effect or growth inhibition) at 200 ppm (Spodoptera littoralis [2]) | mortality at 200 ppm [3] | effect mortality or growth inhibition at 200 ppm (Diabrotica balteata) | percent effect (mortality or growth inhibition) at 200 ppm (Plutella xylostella) | percent effect (mortality or growth inhibition) at 200 ppm (Euschistus heros) | mortality at 200 ppm (Bemisia tabaci) | mortality at 200 ppm (Myzus persicae [5])

CCn1c(C(F)(F)F)cc2nc(-c3ncc(N)cc3S(=O)(=O)CC)n(C)c2c1=O [Compound A5, 2-(5-amino-3-ethylsulfonyl-2-pyridyl)-5-ethyl-3-methyl-6-(trifluoromethyl)imidazo[4,5-c]pyridin-4-one]
≥ 80%: percent control (mortality, anti-feeding effect or growth inhibition) at 200 ppm (Spodoptera littoralis [2]) | pest or weed control at 200 ppm (Aedes aegypti) | effect mortality or growth inhibition at 200 ppm (Diabrotica balteata) | percent effect (mortality or growth inhibition) at 200 ppm (Plutella xylostella) | mortality at 200 ppm (Myzus persicae [5])

CCn1c(C(F)(F)F)cc2nc(-c3nc(N)c(Br)cc3S(=O)(=O)CC)n(C)c2c1=O [Compound A39, 2-(6-amino-5-bromo-3-ethylsulfonyl-2-pyridyl)-5-ethyl-3-methyl-6-(trifluoromethyl)imidazo[4,5-c]pyridin-4-one]
≥ 80%: percent effect (mortality, anti-feeding or growth inhibition) at 12.5 ppm (Spodoptera littoralis [1]) | percent control (mortality, anti-feeding effect or growth inhibition) at 200 ppm (Spodoptera littoralis [2]) | pest or weed control at 200 ppm (Aedes aegypti) | effect mortality or growth inhibition at 200 ppm (Diabrotica balteata) | percent effect (mortality or growth inhibition) at 200 ppm (Plutella xylostella) | percent effect (mortality or growth inhibition) at 200 ppm (Euschistus heros) | mortality at 200 ppm (Bemisia tabaci) | mortality at 200 ppm (Myzus persicae [5])

CCS(=O)(=O)c1ccc(N)nc1-c1nc2cc(C(F)(F)F)n(C3CC3)c(=O)c2n1C [Compound A42, 2-(6-amino-3-ethylsulfonyl-2-pyridyl)-5-cyclopropyl-3-methyl-6-(trifluoromethyl)imidazo[4,5-c]pyridin-4-one]
≥ 80%: mortality at 200 ppm (Tetranychus urticae) | percent effect (mortality, anti-feeding or growth inhibition) at 12.5 ppm (Spodoptera littoralis [1]) | percent control (mortality, anti-feeding effect or growth inhibition) at 200 ppm (Spodoptera littoralis [2]) | mortality at 24 ppm (Myzus persicae [4]) | effect mortality or growth inhibition at 200 ppm (Diabrotica balteata) | percent effect (mortality or growth inhibition) at 200 ppm (Plutella xylostella) | percent effect (mortality or growth inhibition) at 200 ppm (Euschistus heros) | mortality at 200 ppm (Bemisia tabaci) | mortality at 200 ppm (Myzus persicae [5])

CCn1c(C(F)(F)F)cc2nc(-c3nc(NC(=O)OC(C)(C)C)ccc3S(=O)(=O)CC)n(C)c2c1=O [Compound A66, tert-butyl N-[6-[5-ethyl-3-methyl-4-oxo-6-(trifluoromethyl)imidazo[4,5-c]pyridin-2-yl]-5-ethylsulfonyl-2-pyridyl]carbamate]
≥ 80%: mortality at 200 ppm (Tetranychus urticae) | percent effect (mortality, anti-feeding or growth inhibition) at 12.5 ppm (Spodoptera littoralis [1]) | percent control (mortality, anti-feeding effect or growth inhibition) at 200 ppm (Spodoptera littoralis [2]) | effect mortality or growth inhibition at 200 ppm (Diabrotica balteata) | percent effect (mortality or growth inhibition) at 200 ppm (Plutella xylostella) | mortality at 200 ppm (Bemisia tabaci)

CCn1c(C(F)(F)F)cc2nc(-c3nc(N(C)C4CC4)ccc3S(=O)(=O)CC)n(C)c2c1=O [Compound A12, 2-[6-[cyclopropyl(methyl)amino]-3-ethylsulfonyl-2-pyridyl]-5-ethyl-3-methyl-6-(trifluoromethyl)imidazo[4,5-c]pyridin-4-one]
≥ 80%: percent control (mortality, anti-feeding effect or growth inhibition) at 200 ppm (Spodoptera littoralis [2]) | pest or weed control at 200 ppm (Aedes aegypti) | effect mortality or growth inhibition at 200 ppm (Diabrotica balteata) | percent effect (mortality or growth inhibition) at 200 ppm (Plutella xylostella) | percent effect (mortality or growth inhibition) at 200 ppm (Euschistus heros) | mortality at 200 ppm (Bemisia tabaci) | mortality at 200 ppm (Myzus persicae [5])

CCn1c(C(F)(F)F)cc2nc(-c3nc(N)ccc3S(=O)(=O)CC)n(C)c2c1=O [Compound A6, 2-(6-amino-3-ethylsulfonyl-2-pyridyl)-5-ethyl-3-methyl-6-(trifluoromethyl)imidazo[4,5-c]pyridin-4-one]
≥ 80%: percent effect (mortality, anti-feeding or growth inhibition) at 12.5 ppm (Spodoptera littoralis [1]) | percent control (mortality, anti-feeding effect or growth inhibition) at 200 ppm (Spodoptera littoralis [2]) | pest or weed control at 200 ppm (Aedes aegypti) | mortality at 24 ppm (Myzus persicae [4]) | effect mortality or growth inhibition at 200 ppm (Diabrotica balteata) | percent effect (mortality or growth inhibition) at 200 ppm (Plutella xylostella) | percent effect (mortality or growth inhibition) at 200 ppm (Euschistus heros) | mortality at 200 ppm (Bemisia tabaci) | mortality at 200 ppm (Myzus persicae [5])

CCn1c(C(F)(F)F)cc2nc(-c3nc(N)c(Cl)cc3S(=O)(=O)CC)n(C)c2c1=O [Compound A38, 2-(6-amino-5-chloro-3-ethylsulfonyl-2-pyridyl)-5-ethyl-3-methyl-6-(trifluoromethyl)imidazo[4,5-c]pyridin-4-one]
≥ 80%: percent effect (mortality, anti-feeding or growth inhibition) at 12.5 ppm (Spodoptera littoralis [1]) | percent control (mortality, anti-feeding effect or growth inhibition) at 200 ppm (Spodoptera littoralis [2]) | pest or weed control at 200 ppm (Aedes aegypti) | effect mortality or growth inhibition at 200 ppm (Diabrotica balteata) | percent effect (mortality or growth inhibition) at 200 ppm (Plutella xylostella) | percent effect (mortality or growth inhibition) at 200 ppm (Euschistus heros) | mortality at 200 ppm (Bemisia tabaci) | mortality at 200 ppm (Myzus persicae [5])
